From the supplement of paper PMC10307832

Assays:
Test in all cases: relative viability (nuclei count vs DMSO), 5 days (fraction); higher = more cells survive
[1] = compound: O=S(=O)(c1ccccc1)N(CC(F)(F)F)c1ccc(C(O)(C(F)(F)F)C(F)(F)F)cc1 + CC(=O)c1c(C)c2cnc(Nc3ccc(N4CCNCC4)cn3)nc2n(C2CCCC2)c1=O [Palbociclib] (partner 0.5 µM)
Outline: (§1)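 Lung cancer cell lines were seeded in 1536-well plates and dosed by pin tool the next day, with either a single drug or a fixed anchor-drug dose combined with five library-drug doses (not always all listed) spaced in √10 steps. Five days later, one step fixed the cells and stained their nuclei (final 0.05% Triton X-100, 1% formaldehyde, 1 ug/ml Hoechst), and nuclei were counted on 4× images. Relative viability is the nuclei count in treated wells divided by the count in vehicle wells, and each value is the median of duplicate plates.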

[2] = compound: O=S(=O)(c1ccccc1)N(CC(F)(F)F)c1ccc(C(O)(C(F)(F)F)C(F)(F)F)cc1 + Cc1nc(NC(=O)N2CCC[C@H]2C(N)=O)sc1-c1ccnc(C(C)(C)C(F)(F)F)c1 [Alpelisib] (partner 2 µM)
Outline: as §1

RO-3306 + Alpelisib = compound: C1=CC2=C(C=CC(=C2)C=C3C(=O)NC(=NCC4=CC=CS4)S3)N=C1 [RO-3306] + Cc1nc(NC(=O)N2CCC[C@H]2C(N)=O)sc1-c1ccnc(C(C)(C)C(F)(F)F)c1 [Alpelisib] (partner 2 µM)
Outline: as §1

RO-3306 + Palbociclib = compound: C1=CC2=C(C=CC(=C2)C=C3C(=O)NC(=NCC4=CC=CS4)S3)N=C1 [RO-3306] + CC(=O)c1c(C)c2cnc(Nc3ccc(N4CCNCC4)cn3)nc2n(C2CCCC2)c1=O [Palbociclib] (partner 0.5 µM)
Outline: as §1

Cell Line | relative viability ([1]; first compound 0.8 µM) | relative viability ([1]; first compound 2.53 µM) | relative viability ([1]; first compound 8 µM) | relative viability ([2]; first compound 0.8 µM) | relative viability ([2]; first compound 2.53 µM) | relative viability ([2]; first compound 8 µM) | relative viability (RO-3306 + Alpelisib; first compound 0.01 µM) | relative viability (RO-3306 + Alpelisib; first compound 0.03162 µM) | relative viability (RO-3306 + Alpelisib; first compound 0.1 µM) | relative viability (RO-3306 + Alpelisib; first compound 0.3162 µM) | relative viability (RO-3306 + Alpelisib; first compound 1 µM) | relative viability (RO-3306 + Palbociclib; first compound 0.01 µM) | relative viability (RO-3306 + Palbociclib; first compound 0.03162 µM) | relative viability (RO-3306 + Palbociclib; first compound 0.1 µM) | relative viability (RO-3306 + Palbociclib; first compound 0.3162 µM) | relative viability (RO-3306 + Palbociclib; first compound 1 µM)
BEN | 0.506 | 0.504 | 0.454 | 1.13 | 0.953 | 0.902 | 1.3 | 0.738 | 0.926 | 1.09 | 1.08 | 0.49 | 0.438 | 0.458 | 0.473 | 0.476
ABC-1 |  | 0.656 | 0.714 | 0.936 | 0.916 | 1.1 | 1.07 | 1.07 | 1.22 | 0.939 | 1.22 | 0.869 | 0.406 | 0.66 | 0.799 | 0.458
HCC-15 | 0.703 | 0.567 | 0.642 | 0.908 | 0.809 | 0.823 | 1.03 | 0.815 | 0.869 | 0.887 | 0.855 | 0.787 | 0.606 | 0.677 | 0.669 | 0.742
NCI-H460 | 0.16 | 0.133 | 0.113 | 0.544 | 0.512 | 0.512 | 0.571 |  | 0.503 | 0.656 | 0.426 | 0.191 | 0.12 | 0.142 | 0.26 | 0.136
EMC-BAC-2 | 0.525 | 0.473 | 0.5 | 0.874 | 0.754 | 0.757 | 0.763 | 0.63 | 0.717 | 0.774 | 0.726 | 0.501 | 0.461 | 0.514 | 0.516 | 0.494
NCI-H520 | 0.231 | 0.254 | 0.236 | 1 | 0.915 | 1.28 | 0.992 | 0.811 | 0.838 | 0.854 | 0.836 | 0.254 | 0.224 | 0.235 | 0.261 | 0.267
NCI-H1993 | 0.57 | 0.511 | 0.594 | 0.707 | 0.674 | 0.77 |  | 0.657 | 0.712 | 0.589 | 0.666 | 0.636 | 0.633 | 0.611 | 0.552 | 0.583
NCI-H2126 | 0.344 | 0.345 | 0.355 | 0.878 | 0.768 | 0.773 | 0.717 | 0.698 | 0.752 | 0.786 | 0.8 | 0.326 | 0.363 | 0.369 | 0.346 | 0.373
LK-2 | 0.508 | 0.742 | 0.705 | 1.08 | 1.16 | 1.05 | 1.27 | 0.897 | 1.02 | 1.31 | 1.03 | 0.862 | 0.574 | 0.615 | 0.908 | 0.651
NCI-H441 | 0.212 | 0.16 | 0.211 | 0.815 | 0.481 | 0.64 | 1 | 0.556 | 0.563 | 0.657 | 0.66 | 0.197 | 0.179 | 0.182 | 0.204 | 0.157
